Values of other authors as cited in patent US20070190094A1, “PESTICIDAL COMPOSITIONS CONTAINING ISOPROPYL-CONTAINING COMPOUNDS AS PESTICIDALLY ACTIVE INGREDIENTS” (ECOSMART TECHNOLOGIES, INC., priority 2006, published 2007).

Columns and labels:
[1] = animal studies; treatments as low as
[2] = tested on: hepatic microsomal oxidase enzymes; settings: in vivo
[3] = chronic toxicity studies; increased liver weights even at the lowest doses
[4] = U.S. Environmental Protection Agency classification

CCCCOCCOCCOCc1cc2c(cc1CCC)OCO2 [PBO, piperonyl butoxide]
treatment level at which hepatocellular carcinomas were shown [1]: 1.2% | effect on hepatic microsomal oxidase enzymes [2]: inhibit hepatic microsomal oxidase enzymes | lowest dose at which increased liver weights were shown [3]: 30 mg/kg/day | EPA carcinogen class [4]: class C possible human carcinogen
